Test results as given in patent publication EP0561516A1, “Process for stabilizing chlorinated polyethylene against degradation” (THE DOW CHEMICAL COMPANY, priority 1992, dated 1993).

How the values were obtained:
Format in all cases: physicochemical
[1] = Thermal degradation (weight loss) by TGA at 180 °C in nitrogen purge; settings: TGA 180 °C, 60 minutes, 0.3% antioxidant added to CPE slurry heated to 80 °C for 90 minutes
Method: The thermal degradation (weight loss) of the following samples is measured by TGA at 180 °C (in a nitrogen purge during 60 minutes).

[2] = Total organic carbon (TOC) of the slurry, test of antioxidant deposition on CPE; settings: 60 minutes after addition of 0.5% antioxidant to the CPE slurry; 11.8 ppm before addition
Method: In order to test that the antioxidant has actually deposited on the CPE, rather than on the reactor walls, the total organic carbon (TOC) of the slurry is measured, and a glass slide placed in the reactor during the test is investigated for deposition of antioxidant.

[3] = Extension at break after roll milling, dry blending versus liquid-liquid addition of antioxidant; settings: with calcium stearate, epoxidized soja bean oil, titanium dioxide
Method: In order to illustrate the advantages of liquid-liquid blending over dry blending, a sample of CPE containing 36% chlorine, having a density of 1.18 g/cm³, a weight average molecular weight of 2x10⁵ and a cristallinity of 0.5% is mixed in a food processor with 1% calcium stearate, 1% epoxidized soja bean oil and 0.5% titanium dioxide, based on the weight of the CPE. The mixture is formed into a sheet of 3 mm thickness on a roll mill at 190 °C, and its tensile properties are measured. The extension at break is a measure of the molecular weight of a polymer. The material breaks at 596% extension.
Another sample of the same material is milled for 15 minutes at 190 °C before a sheet of 3 mm thickness is formed.
The antioxidant IRGANOX 1076 (trademark) is added to the mixture as described above at an amount of 0.25% by the weight of the CPE using the food mixer. The resulting mixture is milled for 15 minutes. The extension at break of a sheet of 3 mm thickness, prepared as indicated above, is 740%, showing that the degree of chain scission is reduced by the addition of the antioxidant. (comparative run, but not State of the Art.)
To an aqueous slurry containing 16 % of the CPE, based on the total weight of the slurry, 0.25% IRGANOX 1076 (trademark), by the weight of CPE is added in the manner described in Example 1. The mixture is dried as described in Example 1. […]

total organic carbon (TOC) of the slurry [2] | extension at break ([3]; 0.25% antioxidant added to aqueous slurry with 16% CPE (method of the invention), 15 minutes milling) | extension at break ([3]; 0.25% antioxidant dry-blended in food mixer (comparative run), milled 15 minutes at 190 °C, sheet of 3 mm) | SMILES | thermal degradation (weight loss) [1]
 |  |  | Cc1cc(CCC(=O)OCCOCCOCCOC(=O)CCc2cc(C)c(O)c(C(C)(C)C)c2)cc(C(C)(C)C)c1O [IRGANOX 245, triethylene glycol bis [3-tert-butyl-4-hydroxy-5-methylphenyl]propionate] | 75 ppm/min.
10.0 ppm | 704% | 740% | CCCCCCCCCCCCCCCCCCOC(=O)CCc1cc(C(C)(C)C)c(O)c(C(C)(C)C)c1 [IRGANOX 1076, Octadecyl 3,5-di-tert-butyl-4-hydroxyhydrocinnamate] | 
